Results on 24 molecules are retold here after patent US7300794B2, “Accelerated culture system for intestinal epithelial cell monolayers” (Supernus Pharmaceuticals, Inc., priority 2003, dated 2007).

Like-named read-outs stand apart in the source and are kept apart here. Marks after values point to notes of the source that are not given here.

A short description of data set [1]: in vitro. The following applies: human; for Papp A→B: Caco-2, pH 7.4. Here is the method: (§1) A method of using the medium also is part of the present invention. The following description is representative of how this would be done. Caco-2 cells (available from ATCC, Manassas, Va.) are resuspended in the HTB-10 medium and seeded on 3 μm polycarbonate 6-well Transwell® cell culture inserts (diameter 24.5 mm, Corning Costar) at a density of about 0.2×10^6 cells/cm^2. The seeding of the cells was performed on dry filters by placing 1.5 mL of the cell suspension on the apical side first, followed by addition of 2.5 mL of HTB-10 medium to the baso-lateral side.
(§2) To induce cell polarity, the volume of the medium on the apical side was decreased from 1.5 ml to 0.5 mL 48 hours post seeding, and the cells were fed primarily from the baso-lateral side. After the switch, the medium was changed every 24 hr for a total incubation period of 4 days.
(§3) The differentiation status and the monolayer integrity were monitored by measurements of transepithelial electrical resistance (TEER) and by determination of permeability of mannitol. […] The accelerated Caco-2 system was also evaluated through a validation process that was based on FDA guidelines for the Biopharmaceuticals Classification System (BCS). In that process, Caco-2 cell permeability coefficients were determined for 26 structurally diverse compounds that were then rank-ordered according to the fraction absorbed in humans. The transport studies were conducted as follows. The donor solution of the drug was placed on the apical side of a sample filter (1.5 mL) and the buffer solution (HBSS, pH 7.4) was placed on the baso-lateral side (2.5 mL). The plates were incubated at 37° C. on a shaker for 1-3 hr. Samples were collected at the designated time points and analyzed by either HPLC (uv)or radiometry (for radioactive compounds).

Data set [2] relates to Caco-2 monolayer. The following applies: cited from earlier work.
The conditions of data set [3]: fraction absorbed in humans, reported in the literature; cited from earlier work.
For data set [4], the system named is Caco-2 monolayer. The data set is described as follows: in vitro. How it is done:
as §1, §2, §3

[5] abbreviates: BCS validation set, compounds rank-ordered according to fraction absorbed in humans.

The Papp A→B is how fast a substance crosses the layer from the apical side. As for `Nc1nc2c(ncn2COCCO)c(=O)[nH]1` [Acyclovir], the apical-to-basolateral permeability (Papp A→B) in data set [1] stood at 3.8 ×10⁻⁶ cm/s.

For `CC1(C)S[C@@H]2[C@H](NC(=O)[C@H](N)c3ccc(O)cc3)C(=O)N2[C@H]1C(=O)O` [Amoxicillin], the Permeability class result in data set [2] (setting [5]) is listed as “Low”. Further, in data set [1], the Papp A→B turned out to be 0.02 ×10⁻⁶ cm/s. The “% fa in humans” value in data set [3] is on record as 94** %.

Consider `Cc1cc(=O)n(-c2ccccc2)n1C` [Antipyrine], for which, in data set [3], the “% fa in humans” value is 97-100%.

Regarding `CC(C)NCC(O)COc1ccc(CC(N)=O)cc1` (stereo not drawn) [Atenolol], the “% fa in humans” value in data set [3] is 50-54%.

As to `NC(=O)N1c2ccccc2C=Cc2ccccc21` [Carbamazepine], the Permeability class result in data set [2] (setting [5]) is “High”. The Papp A→B in data set [1] was 84.6 ×10⁻⁶ cm/s. Moreover, the “% fa in humans” value in data set [3] is given as 100%.

Consider `NC(N)=Nc1nc(CSCCC(N)=NS(N)(=O)=O)cs1` [Famotidine], for which the Permeability class entry in data set [2] (setting [5]) is recorded as “Low”. In data set [1], the Papp A→B was 1.36 ×10⁻⁶ cm/s. Moreover, the “% fa in humans” value in data set [3] is recorded as 38%.

On to `CC(C)n1c(/C=C/C(O)CC(O)CC(=O)O)c(-c2ccc(F)cc2)c2ccccc21` (stereo not drawn) [Fluvastatin], for which the Permeability class entry in data set [2] (setting [5]) is reported as “High”. In data set [1], this molecule showed a Papp A→B of 10.8 ×10⁻⁶ cm/s.

Regarding `NS(=O)(=O)c1cc(C(=O)O)c(NCc2ccco2)cc1Cl` [Furosemide], in data set [3], the “% fa in humans” value is recorded as 61%.

The molecule `NS(=O)(=O)c1cc2c(cc1Cl)NCNS2(=O)=O` [Hydrochlorthiazide] had a Papp A→B in data set [1] of 6.9 ×10⁻⁶ cm/s. The “% fa in humans” value in data set [3] is 65-72%.

Take `CC(C(=O)O)c1cccc(C(=O)c2ccccc2)c1` (stereo not drawn) [Ketoprofen]: the Permeability class result in data set [2] (setting [5]) was “High”. Further, the Papp A→B in data set [1] amounted to 48.6 ×10⁻⁶ cm/s.

Take `C[C@](N)(Cc1ccc(O)c(O)c1)C(=O)O` [L-alpha-methyldopa]: in data set [2] (Caco-2), the Permeability class entry is “Low”. Moreover, the “[PM × 10^−6] cm/sec” value in data set [4] (human, Caco-2, pH 7.4) is recorded as 5.7 +/− 0.5 × 10^−6 cm/sec. Besides, the “% fa in humans” value in data set [3] is 44** %.

The Papp is the rate of passage across a membrane or cell layer, normalised by area and donor concentration. A higher Papp goes with fast passage. Consider `OC[C@@H](O)[C@@H](O)[C@H](O)[C@H](O)CO` [Mannitol], for which the Permeability class result in data set [2] (setting [5]) is given as “Low”. The same molecule registered an apparent permeability coefficient (Papp) in data set [1] (Caco-2) of 0.7 to 6.3 ×10⁻⁶ cm/s. Also, the Papp A→B in data set [1] was 3 ×10⁻⁶ cm/s. The “% fa in humans” value in data set [3] is reported as 16-26%.

Turning to `CN(Cc1cnc2nc(N)nc(N)c2n1)c1ccc(C(=O)N[C@@H](CCC(=O)O)C(=O)O)cc1` [Methotraxate], the Permeability class entry in data set [2] (setting [5]) is recorded as “Low”. The “[PM × 10^−6] cm/sec” value in data set [4] (4-day Caco-2 in HTB-10, donor apical, HBSS pH 7.4, 37° C., 1-3 hr, donor concentration per Table 1) is 4.2 +/− 0.7 × 10^−6 cm/sec. In addition, in data set [3], the “% fa in humans” value was 20-100** %.

`COCCc1ccc(OCC(O)CNC(C)C)cc1` (stereo not drawn) [Metoprolol]: the Permeability class result in data set [2] (setting [5]) is on record as “High”. The Papp A→B in data set [1] amounted to 43.6 ×10⁻⁶ cm/s.

With `COc1ccc2cc([C@H](C)C(=O)O)ccc2c1` [Naproxen], in data set [3], the “% fa in humans” value is reported as 94-100%.

As to `CC(C)NCC(O)COc1cccc2ccccc12` (stereo not drawn) [Propranolol], the Permeability class entry in data set [2] (setting [5]) is listed as “High”. Further, in data set [1], the Papp A→B amounted to 19.3 ×10⁻⁶ cm/s.

For the molecule `CNC(=C[N+](=O)[O-])NCCSCc1ccc(CN(C)C)o1` [Ranitidine], the Permeability class entry in data set [2] (setting [5]) is “Medium”. In data set [1], the Papp A→B is 2.2 ×10⁻⁶ cm/s. In data set [3], the “% fa in humans” value was 50-61%.

Regarding `CC(C)(C)NCC(O)c1cc(O)cc(O)c1` (stereo not drawn) [Terbutalin], the Permeability class result in data set [2] (setting [5]) was “Medium”. This molecule also showed a Papp A→B in data set [1] of 5.54 ×10⁻⁶ cm/s. In data set [3], the “% fa in humans” value is 50-73%.

Take `C[C@]12CC[C@H]3[C@@H](CCC4=CC(=O)CC[C@@]43C)[C@@H]1CC[C@@H]2O` [Testosterone]: the “% fa in humans” value in data set [3] is on record as 100%.

In the case of `Cn1c(=O)c2[nH]cnc2n(C)c1=O` [Theophylline], the “% fa in humans” value in data set [3] is on record as 96%.

Take `CC(C)(C)NC[C@H](O)COc1nsnc1N1CCOCC1` [Timolol]: in data set [2] (setting [5]), the Permeability class entry is “Medium”. Further, in data set [1], the Papp A→B came to 25.4 ×10⁻⁶ cm/s. The “% fa in humans” value in data set [3] is 72-75%.

For PEG-400, in data set [4] (Caco-2, pH 7.4), the “[PM × 10^−6] cm/sec” value is listed as 1.1 +/− 0.1 × 10^−6 cm/sec.

Turning to PEG-900, the “[PM × 10^−6] cm/sec” value in data set [4] (Caco-2, pH 7.4) was 0.7 +/− 0.1 × 10^−6 cm/sec.

For the molecule PEG-4000, in data set [4] (Caco-2, pH 7.4), the “[PM × 10^−6] cm/sec” value was 0.6 +/− 0.1 × 10^−6 cm/sec.
